Laboratory results published in patent US20050118226A1, “Methods for treating ACAT-related diseases” (priority 2003, published 2005).

Assays:
amyloid plaques = assay: Brain plaque load in hAPP mice (thioflavin S and 6E10 Aβ staining); type: in vivo, mouse
Method: For histomorphological analyses, 8 to 15 histological sections (10 μm) were prepared from one hemisphere of 12 animals (6 placebo, 6 CP-113,818; 3 male, 3 female per group). Number and surface area of amyloid plaques were evaluated in both cortex and hippocampus. 6E10 (Signet; 1:5000; monoclonal) as primary antibody, and Cy™3 fluorescent goat anti-mouse IgG as secondary antibody (Jackson Immuno Research) were used for Aβ staining. Sections of the same brains were also used for synaptophysin staining (Chemicon; 1:5000; monoclonal). Synaptophysin immunoreactive spots were counted by light microscopy in the hippocampal CA1 region. The estimation of immunohistochemical reactions was done by computer-assisted quantification (IMAGE PRO PLUS, Media Cybernetics).
Brain plaque load was evaluated by thioflavin S and immunohistochemical stainings (FIG. 3). Thioflavin S-positive plaques were barely detectable in the cortex of hAPP mice at 6.5 months of age and absent in CP-113,818-treated animals (FIG. 2A). […] Individual differences in amyloid load reflected the well-known variability in Aβ accumulation that has been previously observed in transgenic mice, specifically at early stages of pathology (Johnson-Wood et al., 1997; Kawarabayashi et al., 2001). Amyloid load in the cortex of female animals was two-fold higher than in males, in agreement with previous studies in other mouse models of AD (Callahan et al., 2001; Lee et al., 2002; Wang et al., 2003). The hippocampus, slower than the cortex in developing amyloid pathology in hAPP mice, contained significant numbers of Aβ deposits only in female, but not in male, animals (FIG. 3B and FIG. 4). […] Importantly, when the two genders were considered separately, plaque numbers were reduced to an equal extent in females and males, by 89%, p<0.00002, and 88%, p<0.0002, respectively (FIG. 3B). […] In females the decrease was from 0.45 to 0.04 percent plaque load (p<0.00002), while in males it was from 0.10 to 0.02 (p<0.00013; FIG. 4B). As mentioned above, amyloid load in the hippocampus of male animals was too low at this age for reliable assessment of changes caused by CP-113,818.

ACAT = assay: Cholesterol determinations in non-transgenic mice given 21 day-release CP-113,818 pellets; type: in vivo; conditions: 21 days
Text: hAPP transgenic mice overexpress human APP751 with the London (V717I) and Swedish (K670M/N671L) mutations under the regulatory control of the neuron specific murine (m)Thy-1 promoter (mThy-1-hAPP751; heterozygous with respect to the transgene, on a C57BL/6 F3 background) (Rockenstein et al., 2001). The hAPP colony was sustained by crossing transgenic APP751 with C57BL/6 (Harlan Winkelman, Germany). Corresponding littermates were used for control studies. All mice were housed according to standard animal care protocols, fed ad libitum with standard chow diet, and maintained in a pathogen-free environment in single ventilated cages at JSW Research. The transgenic status of each animal was confirmed by real time PCR of tail snips using specific primers and the appropriate hybridization probe. A modified Irvine test was regularly performed prior to the experiment to assess the neurological status of the animals; those showing disturbances were excluded from the experiments. Mice were then randomly assigned to different treatment groups and individually coded. Investigators performing behavioral testing, biochemical analyzes and histomorphological evaluations of the brains were blinded in terms of group allocation of the mice. CP-113,818, a potent inhibitor of both ACAT1 and ACAT2 (Chang et al., 2000), was graciously provided by Dr. James Harwood, Pfizer (Groton, Conn.). The drug was compounded in release pellets for continuous dosing by Innovative Research of America (Sarasota, Fla.). Only the test compound, but not carrier biopolymers and substances in the pellets, are released into the bloodstream. Pellets were generated to provide either 21 day or 60 days of continuous drug delivery. For implantation of pellets, animals were anesthized with isofluorance. Then, sterile pellets containing either CP-113,818 or placebo were implanted subcutaneously along the anterolateral aspect of the left shoulder with a special precision trocar in accordance with the suppliers instructions.
Tissues were homogenized in the presence of trypsin (10 mg/ml) in a Dounce homogenizer on ice. Protein concentration of the homogenate was determined using the BCA protein assay kit (Pierce). The tissue homogenate was extracted in chloroform:methanol (2:1, v/v) overnight. Before drying the chloroform phase, polyoxyethylene-9-lauryl ether (Sigma; 5 μl/ml of extract) was added. Dried lipid pellets were dissolved in water and total amount of cholesterol was determined with an enzymatic assay (Sigma; cat. no. 402-20). As control, free cholesterol was determined with a different enzymatic assay (R-Biopharm GmbH, Darmstadt, Germany; cat. no. E0139050). The amount of cholesteryl-esters was calculated by subtracting free from total cholesterol. Finally, the values were normalized to protein concentration of the tissue homogenate and expressed in mg of cholesterol per g of protein.
CP-113,818 is a fatty-acid anilide derivative designed to mimic the acyl-CoA substrate of ACAT and a potent ACAT inhibitor in vitro, cell culture, and animals (Chang et al., 2000; Marzetta et al., 1994; Puglielli et al., 2001). In order to determine the in vivo efficacy of CP-113,818 in reducing mouse brain cholesteryl-ester levels, we initially treated non-transgenic animals with the ACAT inhibitor. Most ACAT inhibitors are poorly absorbed when administered orally, and are quickly turned over in the blood or tissues (Marzetta et al., 1994). […]

[1] = 7.1 mg/kg/day, subcutaneous pellet, vs placebo

**Q.** `CCCCCCCC[C@H](SCCCCCC)C(=O)Nc1c(SC)cc(C)nc1SC` [CP-113,818] was tested. Which “reduction of cortical plaque number, females” value (amyloid plaques; female hAPP mice, cortex, 6E10 staining, 57 days) did it give?
**A.** 89%

**Q.** And the “cortical plaque numbers / Aβ staining at beginning versus end of treatment” value (amyloid plaques; female hAPP mice, cortex, day 0 without vs day 57 with treatment)?
**A.** remarkably similar

**Q.** What about the “percent plaque load in cortex after treatment, females” value (amyloid plaques; female hAPP mice, cortex, placebo 0.45) of the same molecule?
**A.** 0.04%

**Q.** And the “decrease of plaque number in the hippocampus of female mice” value (amyloid plaques; female hAPP mice, hippocampus, 57 days)?
**A.** 99%

**Q.** And the “percent plaque load in hippocampus after treatment, females” value (amyloid plaques; female hAPP mice, hippocampus, placebo 0.295)?
**A.** 0.09%

**Q.** What about the “thioflavin S-positive plaques in the cortex” value (amyloid plaques; hAPP mice at 6.5 months of age) of the same molecule?
**A.** absent

**Q.** And the “reduction of cortical plaque number” value (amyloid plaques; hAPP mice, all animals, cortex, 6E10 staining, 57 days)?
**A.** 88%

**Q.** What about the “decrease of plaque burden (percent of cortex covered by plaques)” value (amyloid plaques; hAPP mice, all animals, cortex, 57 days) of the same molecule?
**A.** 90%

**Q.** What about the “reduction of cortical plaque number, males” value (amyloid plaques; male hAPP mice, cortex, 6E10 staining, 57 days) of the same molecule?
**A.** 88%

**Q.** And the “percent plaque load in cortex after treatment, males” value (amyloid plaques; male hAPP mice, cortex, placebo 0.10)?
**A.** 0.02%

**Q.** What about the “effect on food consumption and body weight” value (ACAT; 7.1 mg/kg per day) of the same molecule?
**A.** absence of any evident effect

**Q.** What about the “reduction of cholesteryl-ester levels in the brain” value (ACAT; [1]) of the same molecule?
**A.** 86%

**Q.** And the “reduction of total cholesterol in the serum” value (ACAT; [1])?
**A.** 29%

**Q.** What about the “decrease of free or membrane cholesterol in the liver” value (ACAT; 0.2-7.1 mg/kg/day, dose-dependent) of the same molecule?
**A.** up to 37%

**Q.** And the “effect on free cholesterol levels in the brain” value (ACAT)?
**A.** no effect
